The text below walks through data of ChEMBL document CHEMBL1150260 (J Med Chem, 2008).

Experiment [1] has as its target D(3) dopamine receptor (Homo sapiens, UniProt P35462).
Description: Agonist activity at human dopamine D3 receptor expressed in mouse ATt-20 cells assessed as stimulation of [35S]GTPgammaS binding
The test system of experiment [2] is Rattus norvegicus. Nature of the experiment: Induction of rotational activity in 6-hydroxydopamine unilaterally lesioned rat assessed as number of contralateral rotation at 2.5 umol/kg, sc after 8 hrs. In kind it is functional.
The target of experiment [3] is T1, D(2) dopamine receptor (Homo sapiens, UniProt P14416).
Experiment [4] deals with Rattus norvegicus. The experiment can be described thus: Induction of rotational activity in 6-hydroxydopamine unilaterally lesioned rat assessed as number of contralateral rotation at 5 umol/kg, sc after […]. It is filed as functional.
Experiment [5] concerns the target D(2) dopamine receptor (Rattus norvegicus, UniProt P61169). Nature of the experiment: biochemical.
Description: Displacement of [3H]spiperone from rat dopamine D2L receptor expressed in HEK293 cells
Experiment [6] has as its target D(3) dopamine receptor (Rattus norvegicus, UniProt P19020). The experiment can be described thus: biochemical.
Description: Displacement of [3H]spiperone from rat dopamine D3 receptor expressed in HEK293 cells
The species entered for experiment [7] is Rattus norvegicus. The experiment can be described thus: Selectivity for rat dopamine D3 receptor over rat dopamine D2L receptor.
Experiment [8] deals with T1, D(2) dopamine receptor. The experiment can be described thus: Agonist activity at human dopamine D2L receptor expressed in CHO cells assessed as stimulation of [35S]GTPgammaS binding relative to dopamine. In kind it is functional, cell-based.
Experiment [9] concerns Rattus norvegicus. Nature of the experiment: Induction of rotational activity in subcutaneously dosed 6-hydroxydopamine unilaterally lesioned rat assessed as contralateral rotation. It is filed as functional, organism-based.

Structures are written as SMILES.

Sequence of D(3) dopamine receptor (Rattus norvegicus, UniProt P19020) (P19020 whole entry): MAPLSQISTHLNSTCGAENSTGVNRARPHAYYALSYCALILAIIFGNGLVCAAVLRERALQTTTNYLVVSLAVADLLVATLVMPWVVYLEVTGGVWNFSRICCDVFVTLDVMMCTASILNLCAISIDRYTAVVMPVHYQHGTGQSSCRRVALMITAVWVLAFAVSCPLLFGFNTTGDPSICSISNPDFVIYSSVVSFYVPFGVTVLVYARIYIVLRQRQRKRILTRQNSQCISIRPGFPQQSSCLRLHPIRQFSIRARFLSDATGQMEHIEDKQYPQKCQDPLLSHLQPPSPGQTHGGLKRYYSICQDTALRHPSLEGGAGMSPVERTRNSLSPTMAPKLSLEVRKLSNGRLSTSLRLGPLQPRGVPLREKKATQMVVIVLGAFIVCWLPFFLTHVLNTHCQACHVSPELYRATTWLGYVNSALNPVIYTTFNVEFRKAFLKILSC
Sequence of D(2) dopamine receptor (Rattus norvegicus, UniProt P61169) (P61169 whole entry): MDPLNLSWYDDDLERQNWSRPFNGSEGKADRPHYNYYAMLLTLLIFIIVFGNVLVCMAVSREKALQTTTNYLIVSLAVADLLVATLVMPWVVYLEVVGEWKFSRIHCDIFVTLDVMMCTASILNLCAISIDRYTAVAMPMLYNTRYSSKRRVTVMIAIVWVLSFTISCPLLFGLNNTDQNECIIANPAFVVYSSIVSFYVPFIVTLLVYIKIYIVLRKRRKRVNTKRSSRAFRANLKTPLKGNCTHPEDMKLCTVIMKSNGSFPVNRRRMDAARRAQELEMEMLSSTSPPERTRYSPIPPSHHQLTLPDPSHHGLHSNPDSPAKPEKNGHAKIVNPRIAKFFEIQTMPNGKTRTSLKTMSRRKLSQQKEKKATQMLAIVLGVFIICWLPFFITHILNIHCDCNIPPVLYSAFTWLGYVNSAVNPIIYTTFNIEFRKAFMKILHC
T1 sequence (P14416 whole entry): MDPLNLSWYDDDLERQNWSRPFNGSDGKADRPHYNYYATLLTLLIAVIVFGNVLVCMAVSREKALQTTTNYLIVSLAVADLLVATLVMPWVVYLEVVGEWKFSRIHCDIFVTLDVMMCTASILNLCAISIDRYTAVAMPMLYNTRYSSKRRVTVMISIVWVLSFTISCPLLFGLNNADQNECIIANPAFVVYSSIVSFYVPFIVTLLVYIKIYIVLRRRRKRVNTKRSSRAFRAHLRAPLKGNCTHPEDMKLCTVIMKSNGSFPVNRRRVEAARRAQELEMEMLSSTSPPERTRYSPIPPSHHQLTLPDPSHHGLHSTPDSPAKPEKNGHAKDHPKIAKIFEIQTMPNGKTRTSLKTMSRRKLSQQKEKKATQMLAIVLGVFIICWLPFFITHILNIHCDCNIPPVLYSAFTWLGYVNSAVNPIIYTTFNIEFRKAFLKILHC
Sequence of D(3) dopamine receptor (Homo sapiens, UniProt P35462) (P35462 whole entry): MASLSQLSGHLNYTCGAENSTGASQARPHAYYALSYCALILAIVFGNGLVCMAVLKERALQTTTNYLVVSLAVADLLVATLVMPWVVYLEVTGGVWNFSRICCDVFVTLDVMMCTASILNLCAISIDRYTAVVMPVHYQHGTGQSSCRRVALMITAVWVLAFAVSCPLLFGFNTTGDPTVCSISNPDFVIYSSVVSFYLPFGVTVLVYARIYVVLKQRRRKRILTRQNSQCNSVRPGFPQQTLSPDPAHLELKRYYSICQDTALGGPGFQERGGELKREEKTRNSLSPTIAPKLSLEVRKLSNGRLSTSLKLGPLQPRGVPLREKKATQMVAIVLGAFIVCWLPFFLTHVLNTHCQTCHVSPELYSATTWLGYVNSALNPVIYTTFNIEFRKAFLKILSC

Consider `CCCN(CCN1CCN(c2cccc(Cl)c2Cl)CC1)C1CCc2nc(N)sc2C1` (stereo in doubt; (-)-33) [listing 1 of 2 here], for which the EC50 amounted to 0.06 nM in [1] and 13.4 nM in [3]. In addition, the Activity in [2] is on record as 2281; in experiment [4], 2766. Also, the Ki came to 56.8 nM in [5] and 1.8 nM in experiment [6].
Turning to `CCCN(CCN1CCN(c2ccccc2)CC1)C1CCc2ccc(O)cc2C1` (stereo not drawn), the figures for the inhibitory constant (Ki) in experiment [5] and in experiment [6] were 142 nM and 1.56 nM, respectively. In addition, the Ratio Ki in experiment [7] worked out at 91.
Take `CCCN(CCN1CCN(c2ccccc2)CC1)C1CCc2nc(N)sc2C1` (single isomer, unassigned; (+)) [listing 1 of 2 here]: the Ratio Ki in experiment [7] was determined as 45.
Regarding `CCCN(CCN1CCN(c2ccccc2)CC1)C1CCc2nocc2C1` (stereo not drawn), the Ki came out at 813 nM in experiment [5] and 254 nM in experiment [6]. Moreover, in experiment [7], the Ratio Ki came to 3.2.
For the compound `CCCN(CCN1CCN(c2ccccc2)CC1)C1CCc2nc(N)sc2C1` (stereo in doubt; (-)-31) [listing 1 of 2 here], the Ki was 243 nM in experiment [5] and 4.15 nM in experiment [6].
Take `CCCN(CCN1CCN(c2ccccc2)CC1)C1CCc2nnsc2C1` (stereo not drawn): the Ki in [5] came out at 746 nM; in experiment [6], 160 nM. Also, the Ratio Ki in [7] came out at 4.66.
As to `CCCN(CCN1CCN(c2ccccc2)CC1)C1CCc2nc(N)sc2C1` (stereo in doubt; 6a) [listing 1 of 2 here], the Ratio Ki in experiment [7] is 107.
Consider `CCCN(CCN1CCN(c2ccccc2OC)CC1)C1CCc2nc(N)sc2C1` (single isomer, unassigned; (-)) [listing 1 of 2 here], for which, in experiment [7], the Ratio Ki was determined as 41.1.
For the compound `CCCN(CCN1CCN(c2ccccc2OC)CC1)C1CCc2nc(N)sc2C1` (single isomer, unassigned; (+)) [listing 1 of 2 here], the Ki in experiment [5] was found to be 243 nM; in [6], 101 nM.
For the compound `CCCN(CCN1CCN(c2ccccc2)CC1)C1CCc2[nH]ncc2C1` (stereo not drawn), the Ki is 1830 nM in experiment [5] and 46.7 nM in [6]. For the same compound, the Ratio Ki in [7] stood at 39.3.
`C#CCN(CCN1CCN(c2ccccc2OC)CC1)C1CCc2nc(N)sc2C1` (stereo not drawn): the Ki in [5] was found to be 81.2 nM; in experiment [6], 34.8 nM. Also, the Ratio Ki in experiment [7] was determined as 2.33.
Consider `CCCN(CCN1CCN(c2ccccc2OC)CC1)C1CCc2nc(N)sc2C1` (single isomer, unassigned; (-)) [listing 2 of 2 here], for which the figures for the Ki in experiment [5] and in [6] were 288 nM and 7.01 nM, respectively.
Turning to `CCCN(CCN1CCN(c2cccc(Cl)c2Cl)CC1)C1CCc2nc(N)sc2C1` (stereo in doubt; (-)-33) [listing 2 of 2 here], in [8], the Emax is 78.8%. For the same compound, in experiment [9], the Activity entry is “Dose-dependent effect”. Also, the Ratio Ki in experiment [7] stood at 31.6.
Take `CCCN(CCN1CCN(c2ccccc2OC)CC1)C1CCc2nc(N)sc2C1` (single isomer, unassigned; (+)) [listing 2 of 2 here]: the Ratio Ki in experiment [7] was found to be 2.4.
On to `CCCN(CCN1CCN(c2ccccc2)CC1)C1CCc2oncc2C1` (stereo not drawn), for which the figures for the inhibition constant (Ki) in experiment [5] and in experiment [6] were 915 nM and 155 nM, respectively. In addition, the Ratio Ki in [7] is 5.9.
Take `CCCN(CCN1CCN(c2ccc(-c3ccccc3)cc2)CC1)C1CCc2nc(N)sc2C1` (single isomer, unassigned; (-)): the 50% effective concentration (EC50) in experiment [1] turned out to be 0.085 nM; in experiment [3], 19.9 nM. The Emax in experiment [8] stood at 119%. Besides, the Activity in [2] is 2092; in [9] it was “Dose-dependent effect”; in [4], 3866. Moreover, the inhibition constant (Ki) in experiment [5] turned out to be 264 nM; in experiment [6] it was 0.92 nM. Further, in experiment [7], the Ratio Ki was 253.
`CCCN(CCN1CCN(c2cccc(Cl)c2Cl)CC1)C1CCc2nc(N)sc2C1` (stereo in doubt; 6c) [listing 1 of 2 here]: the Ratio Ki in experiment [7] came out at 37.6.
For `CCCN(CCCCN1CCN(c2ccccc2)CC1)C1CCc2nc(N)sc2C1` (stereo not drawn), the Ki in experiment [5] is 769 nM; in experiment [6], 12.4 nM. Moreover, the Ratio Ki in [7] was determined as 62.
As to `C#CCN(CCN1CCN(c2cccc(Cl)c2Cl)CC1)C1CCc2nc(N)sc2C1` (stereo not drawn), the figures for the Ki in experiment [5] and in experiment [6] were 34.9 nM and 7.1 nM, respectively. In addition, the Ratio Ki in experiment [7] was 4.92.
As to `CCCN(CCN1CCN(c2cccc(Cl)c2Cl)CC1)C1CCc2nc(N)sc2C1` (stereo in doubt; 6c) [listing 2 of 2 here], the values for the inhibition constant (Ki) in experiment [5] and in experiment [6] were 68.4 nM and 1.82 nM, respectively.
Take `CCCN(CCN1CCN(c2ccccc2)CC1)C1CCc2nc(N)sc2C1` (single isomer, unassigned; (+)) [listing 2 of 2 here]: the values for the Ki in [5] and in experiment [6] were 1980 nM and 44 nM, respectively.
Take `CCCN(CCN1CCN(c2cccc(Cl)c2Cl)CC1)C1CCc2nc(N)sc2C1` (stereo in doubt; (+)-33) [listing 1 of 2 here]: in experiment [7], the Ratio Ki was 3.68.
In the case of `CCCN(CCC)C1CCc2ccc(O)cc2C1` (stereo not drawn), in experiment [8], the Emax came out at 61.4%.
Consider `CCCN(CCN1CCN(c2ccccc2)CC1)C1CCc2c[nH]nc2C1` (stereo not drawn), for which the Ki in experiment [5] came out at 2570 nM; in experiment [6], 188 nM. In [7], the Ratio Ki came out at 13.7.
With `CCCN(CCN1CCN(c2cccc(Cl)c2Cl)CC1)C1CCc2nc(N)sc2C1` (stereo in doubt; (+)-33) [listing 2 of 2 here], the Ki in experiment [5] turned out to be 44.2 nM; in [6], 12 nM.
`CCCN(CCN1CCN(c2ccccc2)CC1)C1CCc2nc(N)sc2C1` (stereo in doubt; 6a) [listing 2 of 2 here]: the inhibitory constant (Ki) in [5] turned out to be 639 nM; in [6] it was 5.96 nM.
Turning to `CCCN(CCN1CCN(c2ccccc2OC)CC1)C1CCc2nc(N)sc2C1` (stereo in doubt; 6b) [listing 1 of 2 here], the inhibition constant (Ki) came out at 166 nM in [5] and 5.09 nM in [6].
`CCCN(CCN1CCN(c2ccccc2)CC1)C1CCc2nn[se]c2C1` (stereo not drawn): the inhibition constant Ki in experiment [5] was determined as 189 nM; in experiment [6], 40.7 nM. Further, the Ratio Ki in [7] worked out at 4.64.
Turning to `CCCN(CCN1CCN(c2ccccc2OC)CC1)C1CCc2nc(N)sc2C1` (stereo in doubt; 6b) [listing 2 of 2 here], in experiment [7], the Ratio Ki amounted to 32.6.
Consider `CCCN(CCN1CCN(c2ccccc2)CC1)C1CCc2nc(N)sc2C1` (stereo in doubt; (-)-31) [listing 2 of 2 here], for which the Ratio Ki in [7] amounted to 58.6.
